Assay results taken from US20040072815A1, “Antibiotic composition and method” (priority 2003, published 2004).

Legend:
[1] = system: bacteria; conditions: clavulanic acid alone; background statement in words; cited from earlier work
[2] = system: serine β-lactamase; conditions: background statement in words; cited from earlier work
[3] = target: N-acetylated, α-linked, acidic dipeptidase (NAALADase) (Homo sapiens, UniProt Q04609); test: inhibition of NAALADase by clavulanic acid (applicant's discovery, no method given); assay type: biochemical; conditions: statement in words, no data
Chain of N-acetylated, α-linked, acidic dipeptidase (NAALADase) (Q04609 whole entry): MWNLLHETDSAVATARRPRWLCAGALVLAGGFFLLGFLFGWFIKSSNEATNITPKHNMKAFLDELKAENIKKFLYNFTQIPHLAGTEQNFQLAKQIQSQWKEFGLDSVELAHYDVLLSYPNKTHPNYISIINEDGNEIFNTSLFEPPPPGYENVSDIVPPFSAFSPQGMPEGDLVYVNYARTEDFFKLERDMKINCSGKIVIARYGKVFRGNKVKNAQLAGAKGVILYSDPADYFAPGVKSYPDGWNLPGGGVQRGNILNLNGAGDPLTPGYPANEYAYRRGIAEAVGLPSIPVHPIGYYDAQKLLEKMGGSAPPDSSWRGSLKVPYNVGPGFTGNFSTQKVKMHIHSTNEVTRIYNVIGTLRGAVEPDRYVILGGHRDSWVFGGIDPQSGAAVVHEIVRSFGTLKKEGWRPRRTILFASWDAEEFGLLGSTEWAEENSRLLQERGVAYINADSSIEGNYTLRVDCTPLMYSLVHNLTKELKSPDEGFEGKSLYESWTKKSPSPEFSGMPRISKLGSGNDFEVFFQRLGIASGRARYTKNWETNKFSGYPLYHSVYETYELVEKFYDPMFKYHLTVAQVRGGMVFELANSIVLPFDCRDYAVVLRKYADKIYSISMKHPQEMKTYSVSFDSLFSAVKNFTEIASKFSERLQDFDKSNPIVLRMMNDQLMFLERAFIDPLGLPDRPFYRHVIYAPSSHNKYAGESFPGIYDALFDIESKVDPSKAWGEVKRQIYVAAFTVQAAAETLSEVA

O=C(O)[C@H]1/C(=C/CO)O[C@@H]2CC(=O)N21 [clavulanic acid]
antibacterial activity [1]: only weak, though broad spectrum, antibacterial activity
binding affinity for the serine β-lactamases [2]: very high binding affinity
inhibition of "serine" β-lactamase [2]: potent inhibitor
inhibition of NAALADase [3]: potent inhibitor
